“And” between values parts separate entries of the source, which are not always exact repeats. Equal entries are not always repeated.

Holding throughout (assay): biochemical
What all share (parameters): endogenous in cells; host or cells: K562 cell extract; species or system K562 (extract); replicate k of n = 2 (each experiment ID is one independent experiment; two experiment IDs per compound)
Holding throughout (settings): read-out: KDapp

The target in one assay is STK38 (Homo sapiens, UniProt Q15208).
The target of a further assay is T1, MASTL (Homo sapiens, UniProt Q96GX5).
T1 sequence (Q96GX5 1-879): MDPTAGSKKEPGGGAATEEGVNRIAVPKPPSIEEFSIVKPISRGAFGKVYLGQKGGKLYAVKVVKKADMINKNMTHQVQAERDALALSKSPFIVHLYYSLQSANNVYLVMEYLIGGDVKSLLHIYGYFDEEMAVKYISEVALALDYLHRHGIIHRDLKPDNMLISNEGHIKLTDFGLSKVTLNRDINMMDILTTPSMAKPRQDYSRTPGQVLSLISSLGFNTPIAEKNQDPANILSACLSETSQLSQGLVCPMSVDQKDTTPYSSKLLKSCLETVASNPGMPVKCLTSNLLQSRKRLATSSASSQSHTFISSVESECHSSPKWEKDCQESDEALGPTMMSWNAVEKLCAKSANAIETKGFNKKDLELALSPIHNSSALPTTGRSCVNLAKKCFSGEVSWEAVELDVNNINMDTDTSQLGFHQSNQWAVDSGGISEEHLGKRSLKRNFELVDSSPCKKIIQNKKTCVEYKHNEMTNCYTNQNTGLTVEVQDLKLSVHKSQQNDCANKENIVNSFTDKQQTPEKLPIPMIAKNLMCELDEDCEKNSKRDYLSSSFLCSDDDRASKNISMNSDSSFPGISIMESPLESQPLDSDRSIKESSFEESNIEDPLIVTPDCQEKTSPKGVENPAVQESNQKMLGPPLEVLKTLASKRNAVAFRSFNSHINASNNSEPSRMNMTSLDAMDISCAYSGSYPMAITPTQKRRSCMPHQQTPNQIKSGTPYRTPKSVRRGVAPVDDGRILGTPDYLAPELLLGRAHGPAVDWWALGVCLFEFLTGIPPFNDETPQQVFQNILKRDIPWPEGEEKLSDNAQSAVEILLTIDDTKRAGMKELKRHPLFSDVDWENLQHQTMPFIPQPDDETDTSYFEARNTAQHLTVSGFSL

The target of another assay is T2, PRKX (Homo sapiens, UniProt P51817).
T2 sequence (P51817 1-358): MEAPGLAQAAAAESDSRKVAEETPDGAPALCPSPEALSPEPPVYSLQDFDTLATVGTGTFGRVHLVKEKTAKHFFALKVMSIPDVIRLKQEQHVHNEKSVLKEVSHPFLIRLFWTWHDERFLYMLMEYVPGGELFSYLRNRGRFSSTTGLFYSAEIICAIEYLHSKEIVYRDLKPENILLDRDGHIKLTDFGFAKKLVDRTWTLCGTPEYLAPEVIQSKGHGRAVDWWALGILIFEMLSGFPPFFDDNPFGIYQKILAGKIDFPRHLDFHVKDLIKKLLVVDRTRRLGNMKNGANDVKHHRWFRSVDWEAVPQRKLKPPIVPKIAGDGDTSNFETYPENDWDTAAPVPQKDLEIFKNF

A further assay has as its target T3, ACVR1 (Homo sapiens, UniProt Q04771).
T3 sequence (Q04771 1-509): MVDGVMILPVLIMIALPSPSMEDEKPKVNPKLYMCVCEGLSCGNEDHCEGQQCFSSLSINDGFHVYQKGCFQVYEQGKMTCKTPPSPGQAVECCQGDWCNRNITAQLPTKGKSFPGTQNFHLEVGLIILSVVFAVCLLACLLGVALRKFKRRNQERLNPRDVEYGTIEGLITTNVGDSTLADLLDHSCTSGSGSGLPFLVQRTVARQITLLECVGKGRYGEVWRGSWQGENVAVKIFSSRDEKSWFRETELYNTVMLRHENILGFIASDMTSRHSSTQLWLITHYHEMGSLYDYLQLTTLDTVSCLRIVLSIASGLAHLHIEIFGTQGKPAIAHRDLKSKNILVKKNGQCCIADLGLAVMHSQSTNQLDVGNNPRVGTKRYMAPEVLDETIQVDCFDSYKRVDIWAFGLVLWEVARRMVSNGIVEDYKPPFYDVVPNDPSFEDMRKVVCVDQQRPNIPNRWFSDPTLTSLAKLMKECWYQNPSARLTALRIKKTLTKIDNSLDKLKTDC

Another assay addresses MAPK8 (Homo sapiens, UniProt P45983).

Sequence of STK38 (Q15208 whole entry): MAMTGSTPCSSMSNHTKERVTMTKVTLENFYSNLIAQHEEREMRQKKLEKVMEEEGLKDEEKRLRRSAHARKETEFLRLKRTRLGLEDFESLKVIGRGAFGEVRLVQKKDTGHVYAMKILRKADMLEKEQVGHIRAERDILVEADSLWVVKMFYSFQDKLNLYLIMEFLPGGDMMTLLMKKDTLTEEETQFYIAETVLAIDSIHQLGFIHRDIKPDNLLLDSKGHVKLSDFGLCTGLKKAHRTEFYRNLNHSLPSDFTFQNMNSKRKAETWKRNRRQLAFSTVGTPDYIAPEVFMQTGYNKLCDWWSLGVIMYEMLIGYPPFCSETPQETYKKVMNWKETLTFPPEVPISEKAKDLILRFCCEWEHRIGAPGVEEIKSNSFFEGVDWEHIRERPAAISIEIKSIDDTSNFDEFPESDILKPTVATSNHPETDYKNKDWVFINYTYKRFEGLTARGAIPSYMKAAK
Sequence of MAPK8 (P45983 whole entry): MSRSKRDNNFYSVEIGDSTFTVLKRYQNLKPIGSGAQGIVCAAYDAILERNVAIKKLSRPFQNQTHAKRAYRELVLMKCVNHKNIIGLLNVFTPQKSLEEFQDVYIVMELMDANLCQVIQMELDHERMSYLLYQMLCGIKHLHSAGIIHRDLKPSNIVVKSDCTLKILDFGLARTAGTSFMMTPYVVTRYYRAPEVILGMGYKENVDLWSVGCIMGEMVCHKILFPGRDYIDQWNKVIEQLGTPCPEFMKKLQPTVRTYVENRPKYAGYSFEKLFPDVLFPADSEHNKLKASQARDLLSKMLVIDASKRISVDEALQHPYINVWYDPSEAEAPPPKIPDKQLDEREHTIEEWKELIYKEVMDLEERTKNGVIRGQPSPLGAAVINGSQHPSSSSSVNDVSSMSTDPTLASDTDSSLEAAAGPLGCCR

For the compound `CN1CCN(c2ccc(Nc3ncc(C#N)c(Nc4ccccc4C(N)=O)n3)cc2)CC1.Cl` [TCMDC-134116], the Kd was 306 nM and 253 nM on STK38; 274 nM and 597 nM on MASTL; 1030 nM on PRKX; 2200 nM at ACVR1; 363 nM and 1230 nM at MAPK8.

The record behind these values is PMC4774911, “Biochemical Screening of Five Protein Kinases from Plasmodium falciparum against 14,000 Cell-Active Compounds” (PLoS ONE, 2016).
